Assay results reported in patent US20140051577A1, “SUBSTITUTED 5-(BICYCLO[4.1.0]HEPT-3-EN-2-YL)PENTA-2,4-DIENES AND 5-(BICYCLO[4.1.0]HEPT-3-EN-2-YL)PENT-2-ENE-4-INES AS ACTIVE AGENTS AGAINST ABIOTIC STRESSES IN PLANTS” (priority 2011, published 2014).

Test system: Brassica napus
Assay: Drought stress test on crop plants in greenhouse, spray application, efficacy vs untreated stressed control
Type: in vivo
Conditions: dosage 25 g/ha, mean of three results
Protocol: Seeds of monocotyledonous and dicotyledonous crop plants were laid out in sandy loam in wood-fiber pots, covered with soil and cultivated in a greenhouse under good growth conditions. The test plants were treated at the early leaf stage (BBCH10-BBCH13). To ensure uniform water supply before commencement of stress, the potted plants were supplied with the maximum amount of water immediately beforehand by dam irrigation and, after application, transferred in plastic inserts in order to prevent subsequent, excessively rapid drying. The inventive compounds, formulated in the form of wettable powders (WP), wettable granules (WG), suspension concentrates (SC) or emulsion concentrates (EC), were sprayed onto the green parts of the plants as an aqueous suspension at an equivalent water application rate of 600 l/ha with addition of 0.2% wetting agent (agrotin). Substance application is followed immediately by stress treatment of the plants (cold or drought stress). […]
After the recovery phase had ended, the intensities of damage were rated in visual comparison to untreated, unstressed controls of the same age (in the case of drought stress) or the same growth stage (in the case of cold stress). The intensity of damage was first assessed as a percentage (100%=plants have died, 0%=like control plants). […]

SMILES: CCOC(=O)/C=C(/C)C#CC1(O)C(C)=CC(=O)C2CC21C (centres unmarked) [I.1-394, Ethyl (2Z)-5-(2-hydroxy-1,3-dimethyl-5-oxobicyclo[4.1.0]hept-3-en-2-yl)-3-methylpent-2-en-4-ynoate]
- EF (BRSNS): efficacy, percentage reduction in the intensity of damage (second table headed TABLE A-1) (BRSNS as printed): >5%
- EF (BRSNS): efficacy, percentage reduction in the intensity of damage (Brassica napus): >5%
